Our source for the IC50 values is BindingDB's records for doi:10.1021/jm301022v (F. Hoffmann-La Roche, 2012).

A word on the IC50: it is the concentration at which inhibition is half-maximal.

The nature of the assay: Antagonist activity at LPA1 in human lung fibroblasts assessed as inhibition of LPA-induced contraction after 18 hrs by 3D collagen gel contraction assay.
Regarding `C[C@@H](OC(=O)Nc1c(-c2ccc(C3CCC(CC(=O)O)CC3)cc2)nnn1C)c1ccccc1` (stereo partly drawn), the IC50 came to 220 nM.

For the molecule `C[C@@H](OC(=O)Nc1c(-c2ccc(-c3ccc(C4(C(=O)O)CC4)cc3)cc2)nnn1C)c1cccc(C(F)(F)F)c1`, the concentration for half-maximal inhibition (IC50) was 340 nM.

Take `C[C@@H](OC(=O)Nc1c(-c2ccc(-c3ccc(C4(C(=O)O)CC4)cc3)cc2F)nnn1C)c1ccccc1`: the IC50 worked out at 20 nM.

With `C[C@@H](OC(=O)Nc1c(-c2ccc(-c3ccc(C4(C(=O)O)CC4)cc3)cc2)nnn1C)c1ccccc1`, the IC50 came to 20 nM.

For the molecule `C[C@@H](OC(=O)Nc1c(-c2ccc(-c3ccc(CC(=O)O)cc3)cc2)nnn1C)c1ccccc1`, the IC50 came out at 390 nM.

As to `Cc1nnn(-c2ccc(-c3ccc(C4(C(=O)O)CC4)cc3)cc2)c1NC(=O)O[C@H](C)c1ccccc1`, the 50% inhibitory concentration (IC50) was found to be 100 nM.

As to `Cc1noc(-c2ccc(-c3ccc(CC(=O)O)cc3)cc2)c1NC(=O)O[C@H](C)c1ccccc1`, the half-inhibitory concentration (IC50) was 150 nM.

Take `Cc1noc(-c2ccc(CSCCC(=O)O)cc2)c1NC(=O)OC(C)c1ccccc1Cl` (stereo not drawn) [3-(4-(4-((1-(2-chlorophenyl)ethoxy)carbonylamino)-3-methylisoxazol-5-yl)benzylthio)propanoic acid]: the 50% inhibitory concentration (IC50) was determined as 160 nM.
